Source: patent publication US20260345524A1, “TARGETING KDM2A TO ENHANCE IMMUNE RESPONSIVENESS TO CANCERS” (The Board of Trustees of the Leland Stanford Junior …, priority 2023, published 2026)

Assays:
CTLA-4 = conditions: cited from earlier work
HNSCC = conditions: human, in vivo; cited from earlier work
[1] = tested on: NSD1-inhibited MOC1 tumors; test: Luciferase expressing MOC1 tumors, EZH2 inhibitor treatment, bioluminescence imaging; type: in vivo, mouse (B6 wild type); conditions: 200 mg/kg daily, luminescence day 10
Protocol: FIG. 14. Luciferase expressing MOC1 cells, transduced with scramble control shRNA, NSD1 shRNA, or both NSD1 shRNA and KDM2A shRNA, were injected to B6 wild type mice subcutaneously. The mice were treated 24 hours later with or without EZH2 inhibitor (EPZ-6438) at a dose of 200 mg/kg daily, with or without anti-PD-1 antibody (200 μg/mouse). Bioluminescence imaging was used to assess tumor burden; quantified luminescence signal on day 10 is shown in photons per second. *p<0.05.

[2] = not told; cited from earlier work
[3] = tested on: other JmjC lysine demethylases; conditions: KDM2A/7A versus other JmjC lysine demethylases; cited from earlier work
KDM2A [4] = conditions: cited from earlier work
methyl transferases = conditions: cited from earlier work
[5] = tested on: histone acetyl transferases; conditions: cited from earlier work
CTLA4 = conditions: cited from earlier work
HPV-unrelated HNSCC = test: neoadjuvant pembrolizumab phase II window-of-opportunity trial (NCT02296684); type: in vivo, human
Protocol: FIGS. 1A-1D: NSD1 inactivation downregulates the expression of CXCL9 and CXCL10 in HNSCC. RNA expression and genomic sequencing data from a multicenter, phase II, window-of-opportunity trial (NCT02296684) (23) was examined for CXCL9 and CXCL10 expression and NSD1 mutations. In this trial, neoadjuvant pembrolizumab was administered to patients with locally advanced, resectable, HPV-unrelated HNSCC two to three weeks prior to definitive surgical resection. (A) Comparison of CXCL9 and CXCL10 baseline expression to pathologic tumor response (pTR), as defined in (23), to the anti-PD-1 antibody pembrolizumab. Circles represent responders. ▴ A represent non-responders with wild-type NSD1. Gray triangles represent non-responders with mutated NSD1. (B) Tumor histology from the two patients in the trial that had tumors with NSD1 mutations. Histology of NSD wild-type tumors is also shown. […]
CXCL9 and CXCL10 in human HNSCC datasets. […] The dataset was subsequently analyzed using Seurat (25): The series matrix was loaded into a Seurat object and was filtered to exclude poor quality or dying cells by removing cells with a mitochondrial genome fraction of 0.4 or greater as well as those with a unique feature count of fewer than 200 genes. […] Expression of CXCL9 and CXCL10 was analyzed within samples that had been profiled using whole exome sequencing, such that the NSD1 mutation status was known. […]

FaDu tumor spheroids = test: Spheroid T cell infiltration assay, CD19-CAR T cells co-cultured with CD19-expressing tumor spheroids; type: cell-based, human; conditions: daminozide 1.5 μM, added the day before T cells; 3 days co-culture
Text: FIG. 3A-3G. KDM2A inhibition reverses the immune cold phenotype induced by NSD1 inactivation and induces T cell infiltration into the tumor microenvironment. (A) Overview and illustration of experiment workflow. Tumor spheroids were established from HNSCC tumor cells transfected to express truncated CD19 on the cell surface and grown in submerged Matrigel. The spheroids were co-cultured with CD19-CAR-T cells for three days and then isolated for analysis by confocal microscopy. (B) Assessment by qRT-PCR of CXCL9 and CXCL10 expression after CXCL9 or CXCL10 overexpression (OE) in FaDu cells transduced to express shRNA targeting NSD1 (NSD1-sh). (C) Representative images of tumor spheroids after co-cultured with CD19-CAR-T cells for 3 days. Ctrl=vector control; NSD1-sh=shRNA targeting NSD1; CXCL9-OE=overexpression construct for CXCL9; CXCL10-OE=overexpression construct for CXCL10; KDM2A-sh=shRNA targeting KDM2A. Scale bar=50 um. (D) Representative images of tumor spheroids stained with anti-CD3 antibody (red) and DAPI (blue). […] (E) Quantification of CD3+ cells per 100 cells in the spheroids. […] (G) Quantification of CD3^+ cells per 100 cells in the spheroids. […]
Spheroid T cellinfiltration assay. […] After 3 days of co-culture, the spheroid Matrigel domes were harvested and analyzed by microscopy. […] The stained samples were mounted on glass slides and analyzed by LSM700 confocal microscopy (Zeiss). […]

KDM2A [6] = conditions: cited from earlier work; remark: listed apart in the source

Compound: ipilimumab: fully humanized CTLA4 antibody
- grade III/IV enterocolitis (CTLA-4; 10 mg/kg): ~ 15%
- hepatitis (CTLA-4; additional irAEs): 5-10%
- hypophysitis (CTLA-4; additional irAEs): 5%
- leucopenia (CTLA-4; additional irAEs): < 2%
- pancreatitis (CTLA-4; additional irAEs): < 2%
- rash/pruritus (CTLA-4; additional irAEs): > 50%
- uveitis (CTLA-4; additional irAEs): < 2%

Compound: nivolumab: anti-PD-1 antibody
- clinical response in recurrent/metastatic HNSCC (HNSCC): impressive responses in recurrent/metastatic HNSCC, though only in a minority of patients

Compound: CCN(c1cc(-c2ccc(CN3CCOCC3)cc2)cc(C(=O)NCc2c(C)cc(C)[nH]c2=O)c1C)C1CCOCC1 [EPZ-6438]
- tumor growth in WT mice (EZH2 inhibition) [1]: does reduce tumor growth in WT mice but not to the extent that KDM2A inhibition appeared to achieve

Compound: CC(=O)N1c2ccccc2[C@@](C#N)(c2ccccc2)[C@@H]1c1cncc(CCCCCCCN2CCCC2)c1 [KDM2A/7A-IN-1]
- cell permeability [2]: cell-permeable
- selectivity over other JmjC lysine demethylases [3]: 75 fold
- IC50 (KDM2A [4]): 160 nM
- activity on methyl transferases (methyl transferases): inactive
- activity on histone acetyl transferases [5]: inactive

Compound: Tremelimumab: fully humanized CTLA4 antibody
- toxicity (CTLA4; 10 mg/kg monthly vs 15 mg/kg every 3 months, phase II): toxicity was doubled
- sustained plasma level in the majority of responders (CTLA4; at one month): > 30 µg/mL
- dose at which objective responses were evident (CTLA4; single antibody infusion, 0.01 mg/kg to 15 mg/kg): ≥ 3 mg/kg

Compound: pembrolizumab: anti-PD-1 antibody
- clinical response in recurrent/metastatic HNSCC (HNSCC): impressive responses in recurrent/metastatic HNSCC, though only in a minority of patients
- response of tumors with low CXCL9 or CXCL10 expression (HPV-unrelated HNSCC; neoadjuvant, two to three weeks prior to surgery): None of the tumors with low CXCL9 or CXCL10 expression exhibited response
- response of patients with NSD1 inactivating mutations (HPV-unrelated HNSCC; two patients): Both were non-responders

Compound: CN(C)NC(=O)CCC(=O)O [daminozide]
- T cell infiltration into tumor spheroids (CD3+ cells per 100 cells) (FaDu tumor spheroids): increased the number of infiltrating T cells into tumor spheroids
- effect on KDM2A histone demethylation (KDM2A [6]): significantly abrogate the effect of KDM2A on histone demethylation
